One assay deals with chickweed. The assay is described as follows: Test C postemergence test. As to conditions: for Plant response rating (0 to 100), Chickweed: 31 g ai/ha; for Plant response rating, Chickweed: scale 0 to 100, 0 no effect, 100 complete control. Type of assay: in vivo, Stellaria media. How it is done: (§1) At the same time, plants selected from these crop and weed species and also winter barley (Hordeum vulgare), canarygrass (Phalaris minor), and chickweed (Stellaria media) were treated with postemergence applications of some of the test chemicals formulated in the same manner. Plants ranged in height from 2 to 18 cm (1- to 4-leaf stage) for postemergence treatments. […] At time of treatment, test pots were flooded to 3 cm above the soil surface, treated by application of test compounds directly to the paddy water, and then maintained at that water depth for the duration of the test. Treated plants and controls were maintained in a greenhouse for 13 to 15 days, after which time all species were compared to controls and visually evaluated. […] A dash (-) response means no test result.

The subject of the next assay is winter barley. The assay is described as follows: Test C postemergence test. Type of assay: in vivo, Hordeum vulgare. The settings on record: for Plant response rating (0 to 100), Barley: 31 g ai/ha; for Plant response rating, Barley: scale 0 to 100, 0 no effect, 100 complete control. How it is done: as §1
The next assay relates to field bindweed. The assay is described as follows: Test F preemergence test. Type of assay: in vivo, Convolvulus arvensis. As to conditions: scale 0 to 100. The text has this: (§2) Seeds of plant species selected from bermudagrass (Cynodon dactylon), Surinam grass (Brachiaria decumbens), large crabgrass (Digitaria sanguinalis), green foxtail (Setaria viridis), goosegrass (Eleusine indica), johnsongrass (Sorghum halepense), kochia (Kochia scoparia), pitted morningglory (Ipomoea lacunosa), purple nutsedge (Cyperus rotundus), common ragweed (Ambrosia elation), mustard (Brassica nigra), guineagrass (Panicum maximum), […] (Paspalum dilatatum), barnyardgrass (Echinochloa crus-galli), southern sandbur (Cenchrus echinatus), common sowthistle (Sonchus oleraceous), prickly […] spinosa), Italian ryegrass (Lolium multiflorum), common purslane (Portulaca oleracea), broadleaf signalgrass (Brachiaria platyphylla), common groundsel (Senecio vulgaris), common chickweed (Stellaria media), Virginia dayflower (Commelina virginica), annual bluegrass (Poa annua), naked crabgrass (Digitaria nuda), […] cochinchinensis), quackgrass (Elytrigia repens), Canada horseweed (Conyza canadensis), field bindweed (Convolvulus arvensis), […] (Bidens bipinnata), common mallow (Malva sylvestris), Russian thistle (Salsola kali), and sugarcane (Saccharum officinarum) were planted and treated preemergence with test chemicals formulated in a non-phytotoxic solvent mixture which included a surfactant. At a different time, sugarcane was treated with postemergence applications of some of the test chemicals formulated in the same manner. Plants were approximately 3- to 4-leaf stage for the postemergence treatments. Treated plants and controls were maintained in a greenhouse for 14 to 21 days, after which time all species were compared to controls and visually evaluated. […] A dash (-) response means no test result.

A further assay deals with common groundsel. The assay is described as follows: Test F preemergence test. It counts as in vivo, Senecio vulgaris. The settings on record: scale 0 to 100.
Excerpt: as §2

In a further assay the test system is annual bluegrass. The assay is described as follows: Test F preemergence test. It counts as in vivo, Poa annua. As to conditions: scale 0 to 100.
Excerpt: as §2

For a further assay, the system named is guineagrass. The assay is described as follows: Test F preemergence test. As to conditions: scale 0 to 100. Type of assay: in vivo, Panicum maximum.
Excerpt: as §2

For a further assay, the system named is johnsongrass. The assay is described as follows: Test F preemergence test. It counts as in vivo, Sorghum halepense. As to conditions: scale 0 to 100.
Excerpt: as §2

The test system of another assay is common purslane. The assay is described as follows: Test F preemergence test. It counts as in vivo, Portulaca oleracea. The settings on record: scale 0 to 100.
Excerpt: as §2

Another assay has as its system dallisgrass. The assay is described as follows: Test F preemergence test. It counts as in vivo, Paspalum dilatatum. The settings on record: scale 0 to 100.
Excerpt: as §2

The next assay deals with itchgrass. The assay is described as follows: Test F preemergence test. The settings on record: scale 0 to 100. Type of assay: in vivo, Rottboellia cochinchinensis.
Excerpt: as §2

For the next assay, the system named is prickly sida. The assay is described as follows: Test F preemergence test. It counts as in vivo, Sida spinosa. The settings on record: scale 0 to 100.
Excerpt: as §2

For another assay, the system named is Virginia dayflower. The assay is described as follows: Test F preemergence test. Type of assay: in vivo, Commelina virginica. As to conditions: scale 0 to 100.
Excerpt: as §2

The subject of the next assay is naked crabgrass. The assay is described as follows: Test F preemergence test. Type of assay: in vivo, Digitaria nuda. As to conditions: scale 0 to 100.
Excerpt: as §2

The next assay has as its system green foxtail. The assay is described as follows: Test F preemergence test. It counts as in vivo, Setaria viridis. The settings on record: scale 0 to 100.
Excerpt: as §2

For the compound `CC(c1c(C(F)(F)F)nn(C)c1Cl)S(=O)(=O)c1ccc(Cl)c[n+]1[O-]` (racemic) [Compound 40], the “Plant response rating (0 to 100), Chickweed” value in the assay on chickweed is 0. The “Plant response rating, Chickweed” value with chickweed (62 g ai/ha), in the assay with chickweed (125 g ai/ha) and with chickweed (250 g ai/ha) was 0 in each case. For the same compound, the “Plant response rating (0 to 100), Barley” value in the assay with winter barley was found to be 0. The “Plant response rating, Barley” value in the assay on winter barley (62 g ai/ha), in the assay with winter barley (125 g ai/ha) and in the assay on winter barley (250 g ai/ha) was 0 each time.
Regarding `CCn1nc(C(F)(F)F)c(C[S+]([O-])c2cccc[n+]2[O-])c1OCC(F)(F)F` (racemic) [Compound 65], the “Plant response rating (0 to 100), Chickweed” value with chickweed is listed as 30. For the same compound, the “Plant response rating, Chickweed” value with chickweed (62 g ai/ha) is recorded as 40; with chickweed (125 g ai/ha) it was 80; in the assay with chickweed (250 g ai/ha), 100. For the same compound, the “Plant response rating (0 to 100), Barley” value with winter barley worked out at 0. The figures for the “Plant response rating, Barley” value in the assay with winter barley (62 g ai/ha), in the assay with winter barley (125 g ai/ha) and in the assay with winter barley (250 g ai/ha) were 20, 40 and 40, respectively.
For `[O-][n+]1cc(Cl)ccc1[S+]([O-])Cc1c(C(F)(F)F)nn(CC(F)(F)F)c1Cl` (stereo not shown) [Compound 47], the “Plant response rating (0 to 100), Chickweed” value with chickweed worked out at 0. Moreover, the “Plant response rating, Chickweed” value with chickweed (62 g ai/ha), in the assay on chickweed (125 g ai/ha) and with chickweed (250 g ai/ha) was 0 each time. In the assay on winter barley, the “Plant response rating (0 to 100), Barley” value stood at 0. For the same compound, the “Plant response rating, Barley” value with winter barley (62 g ai/ha) is given as 0; with winter barley (125 g ai/ha) it was 10; with winter barley (250 g ai/ha), 45.
As to `CCn1nc(C(F)(F)F)c(C(C)S(=O)(=O)c2cccc[n+]2[O-])c1OCC(F)(F)F` (stereo not shown) [Compound 69], the “Plant response rating (0 to 100), Chickweed” value with chickweed was 0. In addition, the “Plant response rating, Chickweed” value was 0 with chickweed (62 g ai/ha), 0 in the assay with chickweed (125 g ai/ha) and 40 in the assay with chickweed (250 g ai/ha). Moreover, in the assay on winter barley, the “Plant response rating (0 to 100), Barley” value came to 0. The “Plant response rating, Barley” value is given as 0 in the assay with winter barley (62 g ai/ha), 20 with winter barley (125 g ai/ha) and 25 with winter barley (250 g ai/ha).
For `Cc1cc([S+]([O-])Cc2c(C(F)(F)F)nn(C)c2OCC(F)(F)F)[n+]([O-])cc1Cl` (stereo not shown) [Compound 70], the “Plant response rating, Field Bindweed” value was determined as 40 in the assay on field bindweed (16 g ai/ha, preemergence) and 40 in the assay on field bindweed (Preemergence, 31 g ai/ha). Besides, the “Field Bindweed plant response rating” value turned out to be 40 with field bindweed (62 g ai/ha, Preemergence) and 40 in the assay with field bindweed (125 g ai/ha, preemergence). Besides, the “Groundsel plant response rating” value in the assay on common groundsel (62 g ai/ha, Preemergence) worked out at 98; with common groundsel (125 g ai/ha, preemergence) it was 100. For the same compound, the “Plant response rating, Groundsel” value with common groundsel (Preemergence, 31 g ai/ha) turned out to be 98. Moreover, the “Plant response rating, Bluegrass” value in the assay on annual bluegrass (16 g ai/ha, preemergence) was 65; in the assay on annual bluegrass (Preemergence, 31 g ai/ha) it was 75. The “Bluegrass plant response rating” value in the assay on annual bluegrass (62 g ai/ha, Preemergence) is 95; in the assay with annual bluegrass (125 g ai/ha, preemergence), 100. The “Plant response rating, Guineagrass” value in the assay with guineagrass (16 g ai/ha, preemergence) was determined as 100; in the assay on guineagrass (Preemergence, 31 g ai/ha), 100. Moreover, the “Guineagrass plant response rating” value in the assay on guineagrass (62 g ai/ha, Preemergence) was 100; with guineagrass (125 g ai/ha, preemergence) it was 100. Further, the “Plant response rating, Johnsongrass” value with johnsongrass (16 g ai/ha, preemergence) amounted to 90; with johnsongrass (Preemergence, 31 g ai/ha), 90. For the same compound, the “Johnsongrass plant response rating” value in the assay with johnsongrass (62 g ai/ha, Preemergence) came to 100; in the assay with johnsongrass (125 g ai/ha, preemergence), 100. Also, the “Purslane plant response rating” value worked out at 75 in the assay on common purslane (62 g ai/ha, Preemergence) and 75 with common purslane (125 g ai/ha, preemergence). Besides, the “Plant response rating, Purslane” value in the assay on common purslane (Preemergence, 31 g ai/ha) is 35. The “Dallisgrass plant response rating” value in the assay on dallisgrass (62 g ai/ha, Preemergence) stood at 75; with dallisgrass (125 g ai/ha, preemergence) it was 98. The “Plant response rating, Dallisgrass” value in the assay with dallisgrass (Preemergence, 31 g ai/ha) was 25. The “Plant response rating, Itchgrass” value with itchgrass (16 g ai/ha, preemergence) is recorded as 80; in the assay on itchgrass (Preemergence, 31 g ai/ha), 80. For the same compound, the “Itchgrass plant response rating” value in the assay with itchgrass (62 g ai/ha, Preemergence) is reported as 80; in the assay with itchgrass (125 g ai/ha, preemergence), 100. Further, the “Plant response rating, Prickly Sida” value was determined as 60 in the assay on prickly sida (16 g ai/ha, preemergence) and 80 with prickly sida (Preemergence, 31 g ai/ha). Moreover, the “Prickly Sida plant response rating” value with prickly sida (62 g ai/ha, Preemergence) is listed as 90; in the assay with prickly sida (125 g ai/ha, preemergence), 90. In addition, the “Plant response rating, Dayflower” value was 90 in the assay on Virginia dayflower (16 g ai/ha, preemergence) and 100 in the assay with Virginia dayflower (Preemergence, 31 g ai/ha). Besides, the “Dayflower plant response rating” value in the assay on Virginia dayflower (62 g ai/ha, Preemergence) is listed as 100; with Virginia dayflower (125 g ai/ha, preemergence), 100. Moreover, the “Plant response rating, Crabgrass, Naked” value in the assay with naked crabgrass (16 g ai/ha, preemergence) is 90; with naked crabgrass (Preemergence, 31 g ai/ha), 90. Also, the “Crabgrass, Naked plant response rating” value was 100 with naked crabgrass (62 g ai/ha, Preemergence) and 100 in the assay with naked crabgrass (125 g ai/ha, preemergence). Moreover, the “Foxtail, Green plant response rating” value with green foxtail (62 g ai/ha, Preemergence) was 75; in the assay with green foxtail (125 g ai/ha, preemergence), 90. In addition, in the assay with green foxtail (Preemergence, 31 g ai/ha), the “Plant response rating, Foxtail, Green” value is on record as 65.
Regarding `Cn1nc(C(F)(F)F)c(C[S+]([O-])c2cccc[n+]2[O-])c1OCC(F)(F)C(F)(F)F` (stereo not shown) [Compound 78], the “Plant response rating (0 to 100), Chickweed” value in the assay on chickweed is given as 0. In addition, the “Plant response rating, Chickweed” value in the assay on chickweed (62 g ai/ha) was found to be 0. In addition, in the assay with winter barley, the “Plant response rating (0 to 100), Barley” value came out at 0. The “Plant response rating, Barley” value in the assay on winter barley (62 g ai/ha), in the assay on winter barley (125 g ai/ha) and in the assay with winter barley (250 g ai/ha) was 0 each time.
